Measurements as given in article PMC11747885, “Potent inhibitors of the human RNA ligase Rlig1 highlights its role in RNA integrity maintenance under oxidative cellular stress” (Chemical Science, 2025).
Where “and” joins values, the source holds several entries; their conditions need not be identical. Equal values may be shown once. Marks after values point to notes of the source that are not given here.

Legend:
HEK293 cells [1] = experiment: Cell viability assay of HEK293 cells treated with inhibitors and menadione; type: cell-based, human; settings: for Mean Diff, (Predicted (LS) mean diff,) w/o menadione - w menadione: 2 way ANOVA, Šídák's multiple comparisons test, normalised viability
[2] = as above; type: cell-based, human; settings: human, HEK293 cells, w/o Menadione; for viability at 7.5 µM: 7.5 µM compound; for viability at 15 µM: 15 µM compound; for viability at 30 µM: 30 µM compound; for viability at 60 µM: 60 µM compound
[3] = molecular target: T1, human DNA ligase 1 (hLig1) (Homo sapiens, UniProt P18858); experiment: DNA ligation assay with various hLig1 concentration at constant inhibitor concentration; type: biochemical; settings: 10 μM compound, hLig1 titrated (500 nM to 31.3 nM), 30 min 37 °C
T1 construct: made in house; host or cells: E. coli Rosetta BL21 (DE3), pET28a-hLig1
T1 sequence (P18858 whole entry): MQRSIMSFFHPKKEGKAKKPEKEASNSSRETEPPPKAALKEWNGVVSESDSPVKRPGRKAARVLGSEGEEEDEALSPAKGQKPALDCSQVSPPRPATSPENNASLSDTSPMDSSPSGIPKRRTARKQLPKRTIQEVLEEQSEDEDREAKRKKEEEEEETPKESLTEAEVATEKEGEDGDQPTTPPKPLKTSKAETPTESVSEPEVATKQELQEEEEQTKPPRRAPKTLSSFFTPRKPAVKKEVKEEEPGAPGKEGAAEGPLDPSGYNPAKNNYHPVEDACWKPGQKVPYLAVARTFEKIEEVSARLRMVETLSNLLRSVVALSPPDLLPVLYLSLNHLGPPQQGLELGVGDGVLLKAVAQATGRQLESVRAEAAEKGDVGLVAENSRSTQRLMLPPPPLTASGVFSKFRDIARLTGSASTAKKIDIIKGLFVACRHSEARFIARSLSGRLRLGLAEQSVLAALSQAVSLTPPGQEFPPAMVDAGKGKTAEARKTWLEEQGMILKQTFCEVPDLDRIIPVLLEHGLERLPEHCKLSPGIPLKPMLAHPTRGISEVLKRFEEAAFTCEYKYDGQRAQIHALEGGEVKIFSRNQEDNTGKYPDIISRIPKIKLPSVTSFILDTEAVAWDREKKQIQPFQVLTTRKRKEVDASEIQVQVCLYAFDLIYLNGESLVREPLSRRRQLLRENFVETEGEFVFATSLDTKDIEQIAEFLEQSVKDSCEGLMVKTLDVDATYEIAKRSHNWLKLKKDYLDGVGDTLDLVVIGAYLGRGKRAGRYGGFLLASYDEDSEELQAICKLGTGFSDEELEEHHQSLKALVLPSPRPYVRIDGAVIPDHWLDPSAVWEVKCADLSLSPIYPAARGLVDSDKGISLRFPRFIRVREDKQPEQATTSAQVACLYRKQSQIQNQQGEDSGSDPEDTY

HEK293 cells [4] = experiment: Cell viability assay of HEK293 cells treated with inhibitors (CellTiter-Glo)
[5] = 20240508 plate 012, DMSO Ko no Mendione = 100
[6] = 20240508 plate 013, DMSO Ko no Mendione = 100
[7] = 20240515 plate 014, DMSO Ko no Mendione = 100
[8] = 20240515 plate 015, DMSO Ko no Mendione = 100

## Nc1nccc(Nc2ccc(NC(=O)c3ccc(Nc4ncnc5ccccc45)cc3)cc2)n1 [Compound 47]
HEK293 cells [1]; 7.5 µM compound
  Mean Diff, (Predicted (LS) mean diff,) w/o menadione - w menadione: 27.05
HEK293 cells [1]; 7.5 µM compound, w Menadione (40µM), 20240508 plate 012
  Cell viability raw signal, technical replicates: 13447 and 15406 and 23888 and 24895
HEK293 cells [1]; 7.5 µM compound, w Menadione (40µM), 20240508 plate 013
  Cell viability raw signal, technical replicates: 16840 and 14275 and 23542 and 21544
HEK293 cells [1]; 7.5 µM compound, w Menadione (40µM), 20240515 plate 014
  Cell viability raw signal, technical replicates: 21755 and 24259 and 24363 and 21863
HEK293 cells [1]; 7.5 µM compound, w Menadione (40µM), 20240515 plate 015
  Cell viability raw signal, technical replicates: 23813 and 26835 and 27301 and 27718
HEK293 cells [1]; 7.5 µM compound, w/o Menadione, 20240508 plate 012
  Cell viability raw signal, technical replicates: 495890 and 394280 and 400970 and 404470
HEK293 cells [1]; 7.5 µM compound, w/o Menadione, 20240508 plate 013
  Cell viability raw signal, technical replicates: 392490 and 381070 and 376820 and 393330
HEK293 cells [1]; 7.5 µM compound, w/o Menadione, 20240515 plate 014
  Cell viability raw signal, technical replicates: 358610 and 355380 and 351680 and 351260
HEK293 cells [1]; 7.5 µM compound, w/o Menadione, 20240515 plate 015
  Cell viability raw signal, technical replicates: 363930 and 358300 and 404440 and 357100
HEK293 cells [1]; 15 µM compound
  Mean Diff, (Predicted (LS) mean diff,) w/o menadione - w menadione: 26.73
HEK293 cells [1]; 15 µM compound, w Menadione (40µM), 20240508 plate 012
  Cell viability raw signal, technical replicates: 20771 and 17972 and 20655 and 18810
HEK293 cells [1]; 15 µM compound, w Menadione (40µM), 20240508 plate 013
  Cell viability raw signal, technical replicates: 17686 and 14464 and 20096 and 19671
HEK293 cells [1]; 15 µM compound, w Menadione (40µM), 20240515 plate 014
  Cell viability raw signal, technical replicates: 22870 and 22437 and 28706 and 27891
HEK293 cells [1]; 15 µM compound, w Menadione (40µM), 20240515 plate 015
  Cell viability raw signal, technical replicates: 23978 and 24873 and 26687 and 23492
HEK293 cells [1]; 30 µM compound
  Mean Diff, (Predicted (LS) mean diff,) w/o menadione - w menadione: 26.18
HEK293 cells [1]; 30 µM compound, w Menadione (40µM), 20240508 plate 012
  Cell viability raw signal, technical replicates: 17555 and 22131 and 18922 and 17419
HEK293 cells [1]; 30 µM compound, w Menadione (40µM), 20240508 plate 013
  Cell viability raw signal, technical replicates: 13658 and 13606 and 15514 and 16155
HEK293 cells [1]; 30 µM compound, w Menadione (40µM), 20240515 plate 014
  Cell viability raw signal, technical replicates: 15897 and 16266 and 21346 and 20584
HEK293 cells [1]; 30 µM compound, w Menadione (40µM), 20240515 plate 015
  Cell viability raw signal, technical replicates: 19537 and 20556 and 18511 and 24331
HEK293 cells [1]; 30 µM compound, w/o Menadione, 20240508 plate 012
  Cell viability raw signal, technical replicates: 338540 and 348450 and 357680 and 361520
HEK293 cells [1]; 60 µM compound
  Mean Diff, (Predicted (LS) mean diff,) w/o menadione - w menadione: 29.66
HEK293 cells [1]; 60 µM compound, w Menadione (40µM), 20240508 plate 012
  Cell viability raw signal, technical replicates: 68212* and 77972* and 10202 and 14953
HEK293 cells [1]; 60 µM compound, w Menadione (40µM), 20240508 plate 013
  Cell viability raw signal, technical replicates: 97500* and 94661* and 7245 and 13149
HEK293 cells [1]; 60 µM compound, w Menadione (40µM), 20240515 plate 014
  Cell viability raw signal, technical replicates: 23954 and 23288 and 10147 and 14983
HEK293 cells [1]; 60 µM compound, w Menadione (40µM), 20240515 plate 015
  Cell viability raw signal, technical replicates: 24869 and 20588 and 9258 and 15604
HEK293 cells [1]; 60 µM compound, w/o Menadione, 20240508 plate 012
  Cell viability raw signal, technical replicates: 309000 and 323530 and 287920 and 324080
HEK293 cells [1]; 60 µM compound, w/o Menadione, 20240508 plate 013
  Cell viability raw signal, technical replicates: 294060 and 325150 and 301550 and 314910
HEK293 cells [1]; 60 µM compound, w/o Menadione, 20240515 plate 014
  Cell viability raw signal, technical replicates: 295270 and 285610 and 291450 and 291110
HEK293 cells [1]; 60 µM compound, w/o Menadione, 20240515 plate 015
  Cell viability raw signal, technical replicates: 292640 and 290230 and 291370 and 285220
HEK293 cells [1]; inhibitor 24 h, then 40 μM menadione 5 h
  cell viability under oxidative stress (in words): significantly reduced viability only when the cells were stressed
[2]; [5]
  viability at 7.5 µM: 101%
  viability at 15 µM: 99.1%
  viability at 30 µM: 83.9%
  viability at 60 µM: 74.2%
[2]; [6]
  viability at 7.5 µM: 97.7%
  viability at 15 µM: 99.5%
  viability at 30 µM: 85.9%
  viability at 60 µM: 78.2%
[2]; [7]
  viability at 7.5 µM: 86.8%
  viability at 15 µM: 88.1%
  viability at 30 µM: 80.3%
  viability at 60 µM: 71.3%
[2]; [8]
  viability at 7.5 µM: 90.7%
  viability at 15 µM: 86.8%
  viability at 30 µM: 77.7%
  viability at 60 µM: 70.9%
[3]
  effect on hLig1 activity (in words): least impact on hLig1 activity
HEK293 cells [4]; HEK293, 24 h, up to 30 μM
  cytotoxicity (in words): no detectable cytotoxicity
HEK293 cells [4]; HEK293 cell viability, fit per plate (3 plates, 4 technical replicates each), highest tested concentration 30 µM
  IC50 (Figure 3D: EC50 values for plot; log(inhibitor) vs. response -- Variable slope (four parameters)): 163.557 µM and 35.63 µM and 278.968 µM
HEK293 cells [4]; HEK293 cell viability, fit per plate (3 plates, 4 technical replicates each), log of [µM]
  LogIC50 (log(inhibitor) vs. response -- Variable slope (four parameters)): 2.214 and 1.552 and 2.446
HEK293 cells [4]; Homo sapiens, HEK293, 24 h
  EC50: > 30 µM
